Results published in PMC11113362 (MicrobiologyOpen, 2024).
Entries after “also recorded” stand apart in the source; their conditions may differ. Where two headings read alike, the source gives them in different places. Where a SMILES comes first, the peptide text is derived from it.

Assays:
[1] = biological target: T1, PA0602 solute binding protein (Pseudomonas aeruginosa, UniProt Q9I5T6); assay: biochemical; parameters: species or system Pseudomonas aeruginosa PAO1; settings: for K D: PA0602, microcalorimetric titration, TMP buffer pH 8
From the text: At times thermal shift assays provide […] results, i.e. although there is binding, the Tm shift induced is only minor.

[2] = biological target: T2, PA4985 solute binding protein (Pseudomonas aeruginosa, UniProt Q9HUI0); assay: biochemical; parameters: species or system Pseudomonas aeruginosa PAO1
From the text: PA4985 is an uncharacterized protein. […] .

[3] = biological target: T1, PA0602 solute binding protein; settings: thermal shift assay, Biolog compound arrays, more than 2°C considered significant
Procedure: (§1) Briefly, assays were carried out using a MyIQ2 Real‐Time PCR instrument (BioRad). Experiments were conducted in 96‐well plates, and each assay mixture contained 20.5 μL of the dialyzed protein at 10–50 μM, 2 μL of 5X SYPRO orange (Life Technologies) and 2.5 μL of ligand solution or the equivalent amount of buffer in the ligand‐free control. Compound arrays PM1, PM2a, PM3B, PM4A, PM5, PM6, PM7, and PM8 from Biolog (Newark) were used. Compounds were dissolved in 50 μL water that, according to the information provided by the manufacturer, corresponds to a concentration of 10–20 mM. […] The protein unfolding curves were monitored by detecting changes in SYPRO Orange fluorescence. The Tm values correspond to the minima of the first derivatives of the raw fluorescence data.
The PA0602 protein was overexpressed in E. coli and purified. Freshly dialyzed protein was submitted to thermal shift assays‐based ligand screening using the Biolog compound arrays PM1, PM2A (both carbon sources), PM3B (nitrogen sources), PM4 (phosphorous and sulfur sources), PM5 (nutrient supplements), PM6, PM7, and PM8 (all peptide nitrogen sources). Ligand binding to the protein typically delays thermal unfolding causing increases in the midpoint of the protein unfolding transition (Tm). Tm increases of more than 2°C are considered significant.

[4] = biological target: T2, PA4985 solute binding protein; settings: thermal shift assay, Biolog compound arrays, more than 2°C considered significant
Procedure: as §1

[5] = biological target: T3, AgtB (PA0604) solute binding protein (Pseudomonas aeruginosa, UniProt Q9I5T4); assay: biochemical
Procedure: (§2) Experiments were conducted on a VP‐microcalorimeter (Microcal). Proteins were dialyzed into the TMP buffer, placed at a concentration of 20–40 µM into the sample cell and titrated with 0.25–2.5 mM ligand solutions that were prepared using the dialysis buffer immediately before use. […] The mean enthalpies measured from the injection of ligands into the buffer were subtracted from raw titration data before data analysis with the MicroCal version of ORIGIN. Data were fitted with the “One binding site model” of ORIGIN.

[6] = tested on: P. aeruginosa PAO1; assay: Growth experiments with ligand as sole carbon source; settings: M9 minimal medium, 10 mM compound, 37°C
[7] = biological target: T3, AgtB (PA0604) solute binding protein; settings: microcalorimetric titration, TMP buffer pH 8
Procedure: as §2

[8] = biological target: T4, PA0602 (Pseudomonas aeruginosa, UniProt Q9I5T6); assay: Isothermal titration calorimetry (VP-microcalorimeter) of 20-40 µM purified SBP titrated with 0.25-2.5 mM ligand in TMP buffer (5 mM Tris-HCl, 5 mM MES, 5 mM PIPES, 10% glycerol, pH 8), fitted with the one binding site model; temperature not stated.
T4 construct: residues 22-344, signal peptide omitted, N-terminal His-tag with thrombin site, expressed in E. coli BL21 (DE3)

[9] = biological target: T5, PA4985 (Pseudomonas aeruginosa, UniProt Q9HUI0); assay: as above
T5 construct: residues 40-363, signal peptide omitted, N-terminal His-tag with thrombin site, expressed in E. coli BL21 (DE3)

[10] = tested on: P. aeruginosa; parameters: method as in Dagorn et al., 2013; settings: 10 μM GABA; ref Dagorn et al., 2013; cited from earlier work
[11] = biological target: T3, AgtB (PA0604) solute binding protein; settings: thermal shift assay, Biolog compound arrays, more than 2°C considered significant
Procedure: as §1
To identify the ligands that interact with AgtB, we pursued the same strategy and screened for ligand binding using the PM1 to PM8 compound arrays.

[12] = tested on: AgtS‐LBD (PA0600, amino acids 22–274); assay: Isothermal titration calorimetry of AgtS‐LBD (small ligand and protein‐protein binding studies); settings: for K D (binding of SBP to AgtS‐LBD): 5–10 μM SBP titrated with 50–97 μM AgtS‐LBD, no small ligand; for Protein–protein interaction with AgtS‐LBD, His‐tag‐free protein: His‐tag removed by thrombin, in the presence of GABA (PA0602) or 5‐AMV (AgtB); for K D (binding of ligand‐loaded SBP to AgtS‐LBD): both compartments contained 5 mM 5‐AMV (AgtB) or 1 mM GABA (PA0602)
Procedure: as §2
Fractions that correspond to cleaved protein were dialyzed overnight into the TMP buffer for ITC experiments.
To address this issue, the individual AgtS‐LBD was produced as a purified, recombinant protein.
To assess the possibility of SBP‐mediated activation of AgtS, we conducted protein‐protein microcalorimetric binding studies (Table 1).
Proteins used for these experiments contained an N‐terminal extension harboring the His‐tag. To exclude the possibility that the presence of this extension impedes protein interaction, the tag was cleaved with thrombin in freshly purified PA0602, AgtB, and AgtS‐LBD and its removal was verified by SDS‐PAGE (Figure A4).

[13] = biological target: T6, AruS‐LBD (PA4982, residues 31–141) (Pseudomonas aeruginosa, UniProt Q9HUI3); assay: Bacterial two‐hybrid assay (BACTH); settings: BACTH in E. coli BTH101 on X‐Gal plates; no ligand or GABA, 5‐AMV, spermidine or ethylenediamine at 5 mM
T6 sequence (Q9HUI3 whole entry, looked up): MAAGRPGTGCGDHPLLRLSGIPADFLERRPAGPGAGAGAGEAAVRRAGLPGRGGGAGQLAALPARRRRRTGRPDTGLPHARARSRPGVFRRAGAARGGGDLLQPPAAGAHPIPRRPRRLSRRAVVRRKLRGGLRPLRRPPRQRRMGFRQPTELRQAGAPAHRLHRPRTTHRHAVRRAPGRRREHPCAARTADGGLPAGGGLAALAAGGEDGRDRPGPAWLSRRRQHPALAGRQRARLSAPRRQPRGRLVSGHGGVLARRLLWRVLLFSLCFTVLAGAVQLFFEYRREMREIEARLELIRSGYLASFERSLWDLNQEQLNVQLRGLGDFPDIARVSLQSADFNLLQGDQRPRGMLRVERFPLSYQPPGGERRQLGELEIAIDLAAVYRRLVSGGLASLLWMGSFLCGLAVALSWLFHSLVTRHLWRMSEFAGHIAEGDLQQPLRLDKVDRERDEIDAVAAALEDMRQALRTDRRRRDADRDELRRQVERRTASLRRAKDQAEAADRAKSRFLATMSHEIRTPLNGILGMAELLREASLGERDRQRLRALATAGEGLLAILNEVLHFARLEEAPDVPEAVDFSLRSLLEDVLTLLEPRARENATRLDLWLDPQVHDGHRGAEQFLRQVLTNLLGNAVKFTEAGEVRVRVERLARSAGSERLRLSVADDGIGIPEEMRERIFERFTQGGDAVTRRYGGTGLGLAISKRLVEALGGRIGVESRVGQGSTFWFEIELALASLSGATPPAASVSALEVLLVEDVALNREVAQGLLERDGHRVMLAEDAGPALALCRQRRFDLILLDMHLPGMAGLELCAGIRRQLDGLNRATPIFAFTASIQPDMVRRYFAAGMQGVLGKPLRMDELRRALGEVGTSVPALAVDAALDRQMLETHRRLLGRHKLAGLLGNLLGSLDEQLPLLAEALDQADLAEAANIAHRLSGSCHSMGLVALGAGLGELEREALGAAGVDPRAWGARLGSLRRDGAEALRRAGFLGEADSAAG
Procedure: Plates were incubated at 30°C for 24–48 h. As a positive control, the plasmids pKT25‐zip and pUT18C‐zip were co‐transformed into E. coli BTH101. Negative controls were E. coli BTH101 harboring pUT18C and pKNT25::AruS (strain K^+T^−), and a strain harboring pUT18C::PA4985 and pKNT25 (strain K^−T^+).
This system is based on an adenylate cyclase that contains two catalytically active domains. […] The resulting increase in cAMP induces the expression of lactose and maltose operons, causing a blue colouration of bacteria on X‐Gal‐containing plates. We generated a plasmid that expresses PA4985 fused to one enzyme subunit (pUT18C::PA4985) and a plasmid encoding a fusion of AruS‐LBD to the other subunit (pKNT25::AruS). E. coli BTH101 was transformed with both plasmids, resulting in strain K^+T^+. The K^+T^− and K^−T^+ are negative control strains that contained one of the plasmid constructs (plus sign) and the empty version of the second plasmid (minus sign). The positive control (C+) was provided by the manufacturer.

## NCCCCC(=O)O [5‐AMV, 5‐aminovalerate]
[1]
  Kd: 30 ± 2 µM
[2]
  Kd: 1.6 ± 0.1 µM
[3]
  Tm shift: 2.3 °C
[4]
  Tm shift: 7.6 °C
[5]
  Kd: 17 ± 0.8 µM
[6]
  Growth as sole carbon source: significant growth

## C[C@H](N)C(=O)NCC(=O)O [Ala‐Gly] (H-Ala-Gly-OH)
[7]
  K D: did not reveal binding

## NCCN [Ethylenediamine, ethylenediamine]
[8]
  Kd: 103 ± 4 µM
[9]
  Kd: 19 ± 1 µM
[3]
  Tm shift: 2.0 °C
[4]
  Tm shift: 3.5 °C

## NCCCC(=O)O [GABA, γ‐aminobutyrate]
[1]
  Kd: 2.3 ± 0.8 µM
[2]
  Kd: 0.58 ± 0.1 µM
[7]
  K D: did not reveal binding; also recorded: No binding
[10]
  Cytotoxicity and virulence: strongly increased
  Growth or motility: did not modulate
[6]
  Growth as sole carbon source: significant growth

## NCC(=O)N[C@@H](CCC(N)=O)C(=O)O [Gly‐Gln] (H-Gly-Gln-OH)
[7]
  K D: did not reveal binding

## N=C(N)NCCC[C@H](N)C(=O)O [L‐Arg]
[2]; PA4985, microcalorimetric titration, TMP buffer pH 8
  K D: No binding
[4]
  Tm shift: No binding

## CC(=O)N[C@@H]1[C@@H](O)[C@H](O)[C@@H](CO)O[C@@H]1O [N‐acetyl‐D‐glucosamine]
[1]
  K D: absence of binding
[1]; listed as NADG
  K D: No binding
[3]
  Tm shift: absence of binding
[3]; listed as NADG
  Tm shift: No binding
[11]
  Tm shift: absence of binding; also recorded: No binding
[7]
  K D: absence of binding; also recorded: No binding
[12]; microcalorimetric titration of AgtS‐LBD
  Binding of small ligand to AgtS‐LBD: did not show binding

## NCCCCNCCCN [Spermidine, spermidine]
[1]
  K D: No binding
[2]
  Kd: 160 ± 23 µM
[3]
  Tm shift: No binding
[4]
  Tm shift: 2.8 °C
[6]
  Growth as sole carbon source: significant growth

## NCCCCN [putrescine]
[1]
  K D: No binding
[3]
  Tm shift: No binding

## NCCC(=O)O [β‐alanine]
[11]
  Tm shift: No binding
[7]
  K D: No binding

B1: AgtB: recombinant His‐tagged solute binding protein (SBP_bac_8) of P. aeruginosa PAO1, part of the agt transporter operon (protein)
chain: MGSSHHHHHHSSGLVPRGSHMAVDLTVVSFGGANKSAQIKAFYEPYQKATGNRIVAGEYNGEMAKVKAMVDTNSVSWDLVEVESPELSRGCDEGLFEELDPAQFGKTEDFVPGAIQPCGVGFFVWSTVLAYNADKLKSAPTSWADFWDIKKFPGKRGLRKGAKYTLEFALMADGVAPKDVYGVLATKEGQDRAFKKLDEIKSSIQWWEAGAQPPQYLASGDVVMSSAYNGRIAAVQKESNLKVVWNGGIYDFDAWAIPKGAKKREETLKFIAFSVQPQQQKTYSENIAYGPANKQAVPLLDKALLKDMPTTPENIQNQVAMDVTFWADYGEQLEQRFNAWAAR
[12]
  K D (binding of SBP to AgtS‐LBD): did not show any binding; also recorded: did not reveal binding; also recorded: No binding
  Protein–protein interaction with AgtS‐LBD, His‐tag‐free protein: did not result in any protein–protein interaction
  K D (binding of ligand‐loaded SBP to AgtS‐LBD): absence of binding

B2: PA0602: recombinant His‐tagged solute binding protein (SBP_bac_8) of P. aeruginosa PAO1 (protein)
chain: MGSSHHHHHHSSGLVPRGSHMAEYVTVISFGGANKEAQETAFYKPFKSATGNRVVHGSYNGDLAKLKRMVEISHVSWDVVEVEAPELARGCEEGLFEKLDMAKVGDPADFVPGAVQPCGVGIFVWTTLLAYNPGKVAGSPQGWADFWDVKKFPGKRGLRWGAKYSLEFALMADGVAPKDVYQTLATPAGVERAFRKLDELKPYIHWWKSGQDPVRDLADGTVVMSSAYNGRIAAAQAEKQRLAMVWSGGVYDFDFWALPVGVWKKQLAEEFIRFASQPEQQKAFAENIAYGPANRKAVGLLDPQVAANLPTAPQNMQNAVGMNVAFWAEHGEALEQRFQNWAKR
[12]
  K D (binding of SBP to AgtS‐LBD): did not show any binding; also recorded: did not reveal binding; also recorded: No binding
  Protein–protein interaction with AgtS‐LBD, His‐tag‐free protein: did not result in any protein–protein interaction
  K D (binding of ligand‐loaded SBP to AgtS‐LBD): absence of binding

B3: PA4985: solute binding protein (SBP_bac_8) of P. aeruginosa PAO1 encoded near the aruSR TCS (protein)
chain: MGSSHHHHHHSSGLVPRGSHMADDGLVVVGYGGAGQKAQEVAFFQPFTQQTGIPVVQSEYNGEMARIKVMADTGHADWDLVQVEGPDLARGCDDGLFERLDWQAIGGKQQLIANAAQECGSAALVWGVAIGYDADRLQQPPASWADFWDVQRFPGKRGLRKRAIYNLEFALLADGVPREQVYPLLATRAGADRAFAKLGQLKPYIQWWEAGAQPAQWLAAGDVVMTSTYTGRIADAHRAGRNLALVWQGSLYGMDYWAVVKGSKRGAEARRFIAFANAPDAQVRYVENIPYGPTNRQAAQRLPAQLASWVPTAPANLEQGLAMDDEFWVEHGEELEERFNAWASQ
[13]
  PA4985/AruS‐LBD interaction: did not demonstrate an interaction; also recorded: absence of an PA4985/AruS–LBD interaction
